The text below walks through data of PubChem BioAssay (NCI).

Common to all, as to assay: growth of human tumour cells (NCI), 48 h
The subject of assay [1] is DMS 273 small cell lung.
The test system of assay [2] is DMS 114 small cell lung.
The subject of assay [3] is M19-MEL melanoma.
Assay [4] concerns HOP-18 NSCLC.
For assay [5], the system named is DLD-1 colon.
The subject of assay [6] is MDA-MB-435.
Assay [7] has as its system PC-3 prostate.
For assay [8], the system named is T-47D breast.
Assay [9] has as its system HS 578T breast.
Assay [10] concerns MCF7 breast.

Each structure is given as a SMILES string. Several values for one entry are separate records, joined by “and”; a condition that tells them apart may be missing. Equal entries are not always repeated.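 Test compounds were applied to cells in 96-well plates for 48 hours at 5 doses. GI50 is the concentration that inhibits growth by half. Definition used: TGI = concentration required for complete inhibition of growth.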

Take `CCCCCCCCCCCCCCCCCCCCCC(=O)Nc1ccn(C2OC(CO)C(O)C2O)c(=O)n1` (centres undefined): the TGI is greater than 100 µM in [1]; greater than 43.2 µM in assay [2]; greater than 100 µM in [3]; greater than 100 µM in [4]; greater than 100 µM in assay [5].
For the compound `COc1ccc(C(C#N)NNc2nc(C)cc(=O)[nH]2)cc1OC` (centres undefined), the TGI in assay [1], in assay [2], in assay [3], in assay [4] and in assay [5] was greater than 100 µM each time.
Turning to `CSc1nc2c(nc(N)n2C2OCC(O)C(O)C2O)c(=O)n1C` (centres undefined), the TGI in [2], in assay [3], in [4] and in [5] was greater than 100 µM in each case.
For `Cn1nc(-c2ccccc2)c(C(=O)/C=C/c2ccccc2)c(N2CCOCC2)c1=O`, the TGI was 51.4 µM in assay [1]; 38.2 µM in assay [2]; 61.2 µM in assay [3]; 89.7 µM in assay [4]; greater than 100 µM in assay [5].
`CC(=O)n1c2ccccc2c2nc3nc(Oc4ccc(C)cc4)c4ccccc4c3cc21`: the TGI in [1], in assay [2], in assay [3] and in assay [5] was greater than 100 µM throughout.
Take `CN(C)CCCN1CCc2c([nH]c3ccccc23)C1c1cccnc1` (centres undefined): the TGI in assay [1], in assay [2], in assay [3] and in [5] was greater than 100 µM each time.
In the case of `CC1C(=O)C(C)C(c2ccccc2)N(N=O)C1c1ccccc1` (centres undefined), the TGI in assay [6] is 346 µM; in assay [1], greater than 1000 µM; in assay [7], 754 µM; in assay [8] it was 311 µM; in assay [3], greater than 1000 µM; in [4], greater than 1000 µM. The TGI in assay [5] was greater than 1000 µM; in assay [9] it was 186 µM. In addition, the GI50 was greater than 1000 µM in [3], greater than 1000 µM in assay [4], greater than 1000 µM in assay [5] and 28.6 µM in assay [9].
For the compound `CCOC(=O)C(=O)Nc1c(C)cccc1C`, the TGI in assay [1], in [2], in assay [3], in assay [4] and in [5] was greater than 100 µM throughout.
With `COc1nc2nccc-2c2occn12`, the TGI in assay [1], in assay [2], in [3], in [4] and in assay [5] was greater than 100 µM in each case.
On to `CCCCCCCCCCCCCC(=O)CBr`, for which the TGI in [6] came to 32 µM; in assay [2] it was 9.3 µM; in assay [10], 30.2 µM; in [7] it was 16.3 µM; in [8] it was 18.7 µM; in assay [3] it was 23.5 µM. The TGI in assay [4] stood at 29.3 µM; in [5], 34.3 µM; in [9] it was 52.4 µM.
On to `O=C(CSC(=S)N1CCOCC1)Nc1nc2c(s1)CCCC2`, for which the TGI in [1], in [2], in [3] and in assay [5] was greater than 100 µM throughout.
Turning to `NC(=O)N1N=C2c3ccccc3SC[C@H]2[C@@H]1c1ccccc1`, the results for the TGI in [2], in assay [3] and in assay [5] were 79.9 µM, greater than 100 µM and 91 µM, respectively.
Regarding `CC(=O)c1cc([N+](=O)[O-])ccc1OCC(=O)O`, the TGI in assay [1], in assay [2], in [3] and in [5] was greater than 100 µM throughout.
As to `COc1cc(/C=C/C(=O)c2sc(Nc3ccccc3)nc2C)ccc1O`, the TGI in assay [1], in assay [2], in [3], in [4] and in assay [5] was greater than 100 µM throughout.
Take `CC(C)C1CC(O)O[C@@H]([C@@H](C)[C@H]2CC(=O)[C@@H]3[C@@H]4[C@@H](O)[C@H](O)[C@H]5[C@@H](O)[C@H](O)CC[C@]5(C)[C@H]4CC[C@]23C)C1` (some centres undefined): the TGI in [1], in assay [3] and in assay [5] was greater than 100 µM each time.
Turning to `O=C1C2=C(c3ccccc31)C(c1ccccc1)NC(=S)N2` (centres undefined), the TGI in assay [1], in [2], in assay [3] and in [5] was greater than 100 µM each time.
With `N#CC(C(=O)C(=O)NCCCNC(=O)C(=O)C(C#N)c1ccccc1)c1ccccc1` (centres undefined), the TGI in assay [1], in assay [2], in assay [3], in assay [4] and in [5] was greater than 100 µM throughout.
Regarding `CC/C=C\C/C=C\C/C=C\CCCCCCCC(=O)OCC`, the TGI in assay [2], in assay [3], in assay [4] and in [5] was greater than 100 µM throughout.
For `CC1=C(O)C(=O)C2C(=O)C1C(C)C2c1ccc(Cl)cc1` (centres undefined), the TGI in [1], in assay [3] and in assay [5] was greater than 100 µM each time.
On to `COc1cc(CNc2ccc(C(C)C)cc2)cc(OC)c1OC`, for which, in assay [1], the GI50 is 13 µM. In addition, the TGI turned out to be 26.3 µM in assay [1]; 48.7 µM in [2]; 39 µM in [3]; 74.1 µM in assay [4]; 48.8 µM in assay [5].
For `CCOc1ccc(NCc2cc(OC)c(OC)c(OC)c2)cc1`, the GI50 in assay [6] is 0.0789 µM and 0.0919 µM; in [1] it was 0.296 µM and 0.821 µM; in assay [8], 1.66 µM and 4.48 µM; in assay [4], 2.46 µM and 10.2 µM; in [9], 0.823 µM. The TGI was greater than 100 µM in assay [6]; greater than 100 µM in assay [1]; 3.17 µM and 20 µM in assay [2]; greater than 100 µM in assay [10]; greater than 100 µM in assay [7]; greater than 100 µM in assay [8]. For the same compound, the TGI in assay [4], in [5] and in [9] was greater than 100 µM in each case.
On to `NNC(=O)CCC(=O)NC1C2CC3CC(C2)CC1C3` (centres undefined), for which the TGI in [1], in assay [2], in [3] and in [5] was greater than 100 µM each time.
Turning to `COc1cc([C@@H]2c3cc4c(cc3[C@@H](NC(=O)c3ccccc3)C3COC(=O)[C@@H]32)OCO4)cc(OC)c1O` (some centres undefined), the TGI is 13.7 µM in assay [1]; 21.4 µM in [2]; 24.7 µM in [3]; greater than 100 µM in assay [4]; greater than 100 µM in [5].
With `COC(=O)C1C2C=CC(C2)N1[C@@H](C)c1ccccc1` (some centres undefined), the TGI in [1], in assay [3], in assay [4] and in [5] was greater than 100 µM each time.
Consider `CN(C)C(=S)N=Nc1c(O)[nH]c2ccccc12`, for which the GI50 in [6] was 0.757 µM; in [10] it was 0.552 µM; in assay [7], 0.566 µM; in [8] it was 0.404 µM; in assay [9], 2.95 µM. Also, the TGI was 17.3 µM in [6]; 13.3 µM in assay [10]; 29.7 µM in assay [7]; 10.2 µM in assay [8]; 67.6 µM in [9].
`CCC(CC)n1c(C)nc2c1C(=O)c1ccccc1C2=O`: the figures for the TGI in assay [1], in assay [3] and in [5] were greater than 100 µM, 33.4 µM and greater than 100 µM, respectively.
As to `Cc1nc2sc(C(=O)Nc3ccccc3)c(N)c2cc1C(=O)/C=C/c1ccccc1`, the GI50 in assay [6] was 1.54 µM; in [10], 1.53 µM; in [7] it was 2.14 µM; in assay [8] it was 2.48 µM; in assay [9], 2.79 µM. In addition, the TGI in assay [6] was 3.73 µM; in assay [10], 5.51 µM; in assay [7], 5.55 µM; in assay [8], 8.2 µM; in assay [9] it was greater than 100 µM.
Consider `CCCCn1cnc2c(SC)ncnc21`, for which the TGI in assay [6], in assay [10], in assay [7], in assay [8] and in assay [9] was greater than 100 µM in each case.
As for `CC(C)CC1=[N+]=C(NC#N)N=C(CCC(=O)Nc2ccccc2[N+](=O)[O-])C1`, the TGI in assay [2], in [3], in [4] and in [5] was greater than 100 µM throughout.
Turning to `CC(=O)OC1c2ccccc2CCCCCCC12OCCO2` (centres undefined), the TGI in [2], in [4] and in assay [5] was greater than 100 µM in each case.
For the compound `Cc1cccc(C(C)C)c1NC(=O)C(=O)CC(=O)c1c(C)n([O-])c2ccccc2[n+]1=O`, the TGI is 99.2 µM in assay [1], 52.1 µM in assay [2], 50.6 µM in assay [3] and greater than 100 µM in assay [4].
On to `Fc1cccc(COc2ccc(Nc3ncnc4cc(-c5ccc[nH]5)sc34)cc2Cl)c1`, for which the GI50 in assay [6] is 6.11 µM; in [10] it was 0.0802 µM; in assay [7], 0.77 µM; in [8] it was 0.0977 µM; in assay [9], 4.53 µM. The TGI is greater than 25 µM in assay [6]; 2.76 µM in assay [10]; greater than 15.7 µM in assay [7]; 7.35 µM in assay [8]; 21.2 µM in assay [9].
Turning to `COc1ccc(O)c(C#N)c1C#N`, the TGI in [1] and in assay [3] was greater than 100 µM each time.
For `O=C1/C(=C/c2ccc(O)cc2)COc2ccc(-c3ccccc3)cc21`, the GI50 in assay [6] was 4.23 µM; in assay [10], 2.8 µM; in assay [7], 5.09 µM; in assay [8], 3.76 µM; in [9], 3.79 µM. The TGI in assay [6] was 35.8 µM; in [10], 12.4 µM; in [7], greater than 63.9 µM; in [8] it was 25.6 µM; in assay [9], 24.3 µM.
Take `CN(C)CCOc1ccc2c(c1)C/C(=C/c1ncc([N+](=O)[O-])n1C)C2=O`: the TGI in [6] is 11.5 µM; in [10], 7.11 µM; in assay [7], 18.3 µM; in assay [8], 32.8 µM; in assay [9] it was greater than 49.6 µM.
In the case of `CC1OC2CC(=O)OC2C2=C1C(=O)c1c(O)c3c(c(O)c1C2=O)C1CC(O)C3(O)C(C)O1` (centres undefined), the GI50 in assay [6] was 0.264 µM; in assay [10] it was 0.126 µM; in assay [7], 0.533 µM; in assay [8] it was 0.336 µM; in [9], 0.429 µM. The TGI in assay [6] was found to be 0.591 µM; in [10] it was 0.366 µM; in [7], 6.47 µM; in assay [8] it was 1.55 µM; in assay [9] it was 2.92 µM.
For `COc1ccc2c3c(c(=O)n(C)c2c1OC)C=CC(C)(C)O3`, the TGI was greater than 100 µM in assay [6]; greater than 100 µM in assay [10]; greater than 100 µM in assay [7]; greater than 100 µM in assay [8]; 78.4 µM in assay [9].
For the compound `CC(=O)[O-].CC(=O)[O-].[NH2-].[Pt+2].c1ccc2cnccc2c1`, the GI50 was greater than 100 µM in assay [6]; 11.3 µM in [10]; greater than 100 µM in assay [7]; 1.61 µM in assay [8]; 60.4 µM in [9]. Further, the TGI in [6] is greater than 100 µM; in [10], 42.8 µM; in [7] it was greater than 100 µM; in [8] it was 24.7 µM; in assay [9], greater than 100 µM.
In the case of `CC(C)NC(=O)OCCS(=O)c1c(Cl)c(Cl)nn1C` (centres undefined), the TGI in [6] is 56.3 µM; in [10] it was greater than 100 µM; in assay [7], greater than 100 µM; in [8] it was greater than 100 µM; in [9] it was greater than 100 µM.
With `O=c1cc(-c2ccccc2)c2cc3c(=O)ccoc3cc2o1`, the TGI in [1], in [2], in [3] and in assay [5] was greater than 100 µM throughout.
For `Cn1ccnc1C(=O)/C=C/c1ccc(CC(=O)Nc2ccccc2)cc1`, the GI50 in assay [6] is 4.3 µM; in [10] it was 1.13 µM; in [7], 3.29 µM; in [8], 5.23 µM; in [9], 14.2 µM. Besides, the TGI in assay [6] is 13.7 µM; in assay [10], 10.3 µM; in assay [7], 8.55 µM; in assay [8], greater than 25 µM; in assay [9] it was greater than 25 µM.
Consider `O=C(O)c1cc(=O)c2[nH]c3ccccc3c2s1`, for which the TGI in assay [2], in assay [3] and in assay [5] was greater than 100 µM each time.
